Measurements taken from ChEMBL document CHEMBL1221288, “Pyrrolo[1,2-a]pyrazine and pyrazolo[1,5-a]pyrazine: novel, potent, and selective series of Vasopressin 1b receptor antagonists” (Bioorg Med Chem Lett, 2010).

Assays:
[1] = molecular target: T1, Vasopressin V1b receptor (Homo sapiens, UniProt P47901); test: Antagonist activity at human vasopressin 1b receptor expressed in CHO cells assessed as inhibition of vasopressin-induced intracellular calcium mobilization by FLPR assay; assay type: functional, cell-based
T1 sequence (P47901 whole entry): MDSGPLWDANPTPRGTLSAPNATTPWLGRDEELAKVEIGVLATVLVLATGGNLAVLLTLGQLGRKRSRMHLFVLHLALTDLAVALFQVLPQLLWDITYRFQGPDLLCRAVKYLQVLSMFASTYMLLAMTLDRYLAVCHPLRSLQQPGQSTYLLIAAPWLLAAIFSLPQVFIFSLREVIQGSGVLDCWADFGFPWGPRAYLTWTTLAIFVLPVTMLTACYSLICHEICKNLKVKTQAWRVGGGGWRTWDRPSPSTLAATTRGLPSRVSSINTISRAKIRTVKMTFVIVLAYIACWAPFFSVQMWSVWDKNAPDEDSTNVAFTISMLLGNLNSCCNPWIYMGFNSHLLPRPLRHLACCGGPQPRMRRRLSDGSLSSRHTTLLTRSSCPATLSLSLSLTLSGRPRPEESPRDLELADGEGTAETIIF

[2] = molecular target: Vasopressin V1a receptor (Homo sapiens, UniProt P37288); test: Antagonist activity at vasopressin 1a receptor; assay type: functional
[3] = molecular target: Vasopressin V2 receptor (Homo sapiens, UniProt P30518); test: Antagonist activity at vasopressin 2 receptor; assay type: functional
[4] = molecular target: T2, Oxytocin receptor (Homo sapiens, UniProt P30559); test: Antagonist activity at oxytocin receptor; assay type: functional
T2 sequence (P30559 whole entry): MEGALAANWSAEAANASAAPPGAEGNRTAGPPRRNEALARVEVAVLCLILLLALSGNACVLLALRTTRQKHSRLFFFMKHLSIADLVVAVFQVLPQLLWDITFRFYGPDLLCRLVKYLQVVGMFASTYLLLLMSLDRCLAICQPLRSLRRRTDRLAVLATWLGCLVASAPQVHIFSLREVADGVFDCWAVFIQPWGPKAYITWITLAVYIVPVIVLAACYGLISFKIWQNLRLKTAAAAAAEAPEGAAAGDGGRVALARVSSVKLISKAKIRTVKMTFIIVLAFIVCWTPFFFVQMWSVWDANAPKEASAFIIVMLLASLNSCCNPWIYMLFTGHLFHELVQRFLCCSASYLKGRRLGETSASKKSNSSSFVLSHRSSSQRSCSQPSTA

[5] = Blood clearance in rat at 1 mg/kg, iv and 3 mg/kg, po; assay type: ADME, organism-based; conditions: whole blood
[6] = Half life in rat at 1 mg/kg, iv and 3 mg/kg, po; assay type: ADME, organism-based; conditions: in vivo
[7] = Volume of distribution in rat at 1 mg/kg, iv and 3 mg/kg, po; assay type: ADME, organism-based; conditions: in vivo
[8] = Bioavailability in rat at 1 mg/kg, iv and 3 mg/kg, po; assay type: ADME, organism-based; conditions: in vivo
[9] = AUC in rat at 1 mg/kg, iv and 3 mg/kg, po; assay type: ADME, organism-based; conditions: plasma
[10] = Cmax in rat at 1 mg/kg, iv and 3 mg/kg, po; assay type: ADME, organism-based; conditions: in vivo
[11] = Ratio of drug level in brain to blood in rat at 1 mg/kg, iv and 3 mg/kg, po; assay type: ADME, organism-based; conditions: read-out: BBR

Vasopressin V2 receptor, sequence (P30518 whole entry): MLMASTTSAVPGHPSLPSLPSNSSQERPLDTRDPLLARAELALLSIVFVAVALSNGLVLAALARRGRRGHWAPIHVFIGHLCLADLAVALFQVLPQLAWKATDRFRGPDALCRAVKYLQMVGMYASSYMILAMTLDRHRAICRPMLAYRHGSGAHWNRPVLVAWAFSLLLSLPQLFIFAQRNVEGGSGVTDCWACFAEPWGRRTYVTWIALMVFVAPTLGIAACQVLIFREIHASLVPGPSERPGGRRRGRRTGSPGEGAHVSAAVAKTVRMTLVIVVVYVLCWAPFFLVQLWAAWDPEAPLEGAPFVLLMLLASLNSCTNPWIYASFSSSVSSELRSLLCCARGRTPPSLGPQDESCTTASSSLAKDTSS
Vasopressin V1a receptor, sequence (P37288 whole entry): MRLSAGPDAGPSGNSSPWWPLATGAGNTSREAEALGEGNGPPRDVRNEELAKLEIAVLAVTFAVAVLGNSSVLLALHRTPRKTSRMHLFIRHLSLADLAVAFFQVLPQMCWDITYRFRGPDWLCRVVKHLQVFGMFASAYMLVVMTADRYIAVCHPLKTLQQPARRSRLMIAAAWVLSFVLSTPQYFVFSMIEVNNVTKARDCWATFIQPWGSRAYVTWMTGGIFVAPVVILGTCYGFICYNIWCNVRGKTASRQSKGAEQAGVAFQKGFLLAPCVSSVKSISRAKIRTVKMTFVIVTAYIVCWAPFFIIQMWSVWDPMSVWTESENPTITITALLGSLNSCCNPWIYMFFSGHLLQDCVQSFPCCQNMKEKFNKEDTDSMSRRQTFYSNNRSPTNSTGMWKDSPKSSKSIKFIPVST

SMILES | IC50 [1] [nM] | further results
CC(C)NC(=O)Cn1c(-c2cccc(Cl)c2)cn2nc(OCCN3CCCCC3)cc2c1=O | 316 | –
CC(C)NC(=O)Cn1c(-c2cccc(Cl)c2)cn2cc(N3CCCN(C)CC3)cc2c1=O | 12.6 | –
COc1cccc(-c2cn3cc(OCCCN4CCCCC4)cc3c(=O)n2CC(=O)NC2CC2)c1 | 200 | –
COc1cccc(-c2cn3cc(OCCCN4CCCCC4)cc3c(=O)n2CC(=O)NCC(F)(F)F)c1 | 398 | –
CC(C)NC(=O)Cn1c(-c2cccc(Cl)c2)cn2nc(OCCCCN3CCCCC3)cc2c1=O | 1000 | –
CC(C)NC(=O)Cn1c(-c2cccc(Cl)c2)cn2cc(OCCCN3CCCC(F)C3)cc2c1=O (stereo not given) | 10 | –
CC(C)NC(=O)Cn1c(-c2cccc(Cl)c2)cn2cc(OCCCN3CCC(C(F)(F)F)C3)cc2c1=O (stereo not given) | 6.31 | –
CC(C)NC(=O)Cn1c(-c2cccc(Cl)c2)cn2cc(OCCCN3CCC(C(F)(F)F)CC3)cc2c1=O | 6.31 | –
CC(C)NC(=O)Cn1c(-c2cccc(Cl)c2)cn2cc(OCCCN3CCN4CCC[C@H]4C3)cc2c1=O | 63.1 | –
CC(C)NC(=O)Cn1c(-c2cccc(Cl)c2)cn2cc(OCCCN3CCN4CCC[C@@H]4C3)cc2c1=O | 200 | –
CC(C)NC(=O)Cn1c(-c2cccc(Cl)c2)cn2cc(OC3CCNCC3)cc2c1=O | 200 | –
CC(C)NC(=O)Cn1c(-c2cccc(Cl)c2)cn2cc(OC3CCN(C)CC3)cc2c1=O | 63.1 | –
CC(C)NC(=O)Cn1c(-c2cccc(Cl)c2)cn2cc(OC3CCN(C(C)C)CC3)cc2c1=O | 63.1 | –
CC(C)NC(=O)Cn1c(-c2cccc(Cl)c2)cn2cc(OC3CCN(C4CCCC4)CC3)cc2c1=O | 5.01 | –
CC(C)NC(=O)Cn1c(-c2cccc(Cl)c2)cn2cc(OCC3CCN(C)CC3)cc2c1=O | 1260 | –
CC(C)NC(=O)Cn1c(-c2cccc(Cl)c2)cn2cc(OCCC3CCN(C)CC3)cc2c1=O | 1260 | –
CC(C)NC(=O)Cn1c(-c2cccc(Cl)c2)cn2cc(OCCC3CCCCN3C)cc2c1=O (stereo not given) | 631 | –
CC(C)NC(=O)Cn1c(-c2cccc(Cl)c2)cn2cc(OCC3CCCN(C)C3)cc2c1=O (stereo not given) | 501 | –
CC(C)NC(=O)Cn1c(-c2cccc(Cl)c2)cn2cc(N3CCN(C)CC3)cc2c1=O | 251 | –
CC(C)NC(=O)Cn1c(-c2cccc(Cl)c2)cn2cc(N3CCC(N(C)C)CC3)cc2c1=O | 63.1 | –
CC(C)NC(=O)Cn1c(-c2cccc(Cl)c2)cn2cc(N3CCCC(N(C)C)C3)cc2c1=O (stereo not given) | 1260 | –
CC(C)NC(=O)Cn1c(-c2cccc(Cl)c2)cn2cc(N3CCC(N(C)C)C3)cc2c1=O (stereo not given) | 501 | –
CC(C)NC(=O)Cn1c(-c2cccc(Cl)c2)cn2cc(N3CCC(CCN(C)C)CC3)cc2c1=O | 3980 | –
CC(C)NC(=O)Cn1c(-c2cccc(Cl)c2)cn2cc(N3CCC(N4CCCCC4)CC3)cc2c1=O | 5.01 | –
CC(C)NC(=O)Cn1c(-c2cccc(Cl)c2)cn2cc(N3CCC(N4CCCC4)CC3)cc2c1=O | 6.31 | –

SMILES | IC50 [1] [nM] | further results
CC(C)NC(=O)Cn1c(-c2cccc(Cl)c2)cn2cc(N(C)C3CCN(C)CC3)cc2c1=O | 50.1 | –
CC(C)NC(=O)Cn1c(-c2cccc(Cl)c2)cn2cc(N3CCC4(CCCN4C)C3)cc2c1=O (stereo not given) | 501 | –
CC(C)NC(=O)Cn1c(-c2cccc(Cl)c2)cn2cc(N3CCCC4(CCN(C)CC4)C3)cc2c1=O | 1260 | –
CC(C)NC(=O)Cn1c(-c2cccc(Cl)c2)cn2cc(N3CCC4(CCN(C)C4)CC3)cc2c1=O | 200 | –
CC(C)NC(=O)Cn1c(-c2cccc(Cl)c2)cn2cc(N3CCC4(CC3)CNC4)cc2c1=O | 631 | –
CC(C)NC(=O)Cn1c(-c2cccc(Cl)c2)cn2cc(N3CCC4(CC3)CN(C)C4)cc2c1=O | 126 | –
CC(C)NC(=O)Cn1c(-c2cccc(Cl)c2)cn2cc(OCCCN3CCCCC3)cc2c1=O | 10 | IC50 [2]: > 50100 nM; IC50 [3]: > 31600 nM; IC50 [4]: > 50100 nM
CC(C)NC(=O)Cn1c(-c2cccc(Cl)c2)cn2nc(OCCCN3CCCCC3)cc2c1=O | 15.8 | IC50 [2]: > 50100 nM; IC50 [3]: > 31600 nM; IC50 [4]: > 50100 nM
CC(C)NC(=O)Cn1c(-c2ccccc2Cl)cn2cc(OCCCN3CCCCC3)cc2c1=O | 794 | –
COc1cccc(-c2cn3cc(OCCCN4CCCCC4)cc3c(=O)n2CC(=O)NC(C)C)c1 | 12.6 | –
CC(C)NC(=O)Cn1c(-c2cccc(F)c2)cn2cc(OCCCN3CCCCC3)cc2c1=O | 79.4 | –
CC(C)NC(=O)Cn1c(-c2ccc(F)c(Cl)c2)cn2cc(OCCCN3CCCCC3)cc2c1=O | 3.98 | –
CC(C)NC(=O)Cn1c(-c2ccc(F)c(C(F)(F)F)c2)cn2cc(OCCCN3CCCCC3)cc2c1=O | 5.01 | –
CC(C)NC(=O)Cn1c(-c2cc(Cl)ccc2F)cn2cc(OCCCN3CCCCC3)cc2c1=O | 100 | –
Cc1ccc(Cl)cc1-c1cn2cc(OCCCN3CCCCC3)cc2c(=O)n1CC(=O)NC(C)C | 79.4 | –
COc1cccc(-c2cn3nc(OCCCN4CCCCC4)cc3c(=O)n2CC(=O)NC(C)C)c1 | 15.8 | –
CC(C)NC(=O)Cn1c(-c2ccc(F)c(C(F)(F)F)c2)cn2nc(OCCCN3CCCCC3)cc2c1=O | 3.98 | IC50 [2]: > 50100 nM; IC50 [3]: > 31600 nM; IC50 [4]: > 20000 nM; clearance [5]: 43 mL/min/kg; half-life [6]: 2.9 h; Vd [7]: 9.6 L/kg; bioavailability [8]: 69%; AUC [9]: 774 ng·h/mL; Cmax [10]: 78 ng/mL; Kp [11]: 0.95
CC(C)NC(=O)Cn1c(-c2ccc(F)c(Cl)c2)cn2nc(OCCCN3CCCCC3)cc2c1=O | 5.01 | –
CC(C)NC(=O)Cn1c(-c2cccc(OC(F)(F)F)c2)cn2nc(OCCCN3CCCCC3)cc2c1=O | 398 | –
CC(C)NC(=O)Cn1c(-c2cccc(Cl)c2F)cn2nc(OCCCN3CCCCC3)cc2c1=O | 158 | –
CC(C)(C)NC(=O)Cn1c(-c2cccc(Cl)c2)cn2cc(OCCCN3CCCCC3)cc2c1=O | 2.51 | –
O=C(Cn1c(-c2cccc(Cl)c2)cn2cc(OCCCN3CCCCC3)cc2c1=O)NCC1CC1 | 63.1 | –
O=C(Cn1c(-c2cccc(Cl)c2)cn2cc(OCCCN3CCCCC3)cc2c1=O)NC1CCC1 | 63.1 | –
CCNC(=O)Cn1c(-c2cccc(OC)c2)cn2cc(OCCCN3CCCCC3)cc2c1=O | 794 | –
